Laboratory results reported in paper PMC12298351, “Novel 3,19-(N-Phenyl-3-(4-fluorophenyl)-pyrazole) Acetal of Andrographolide Promotes Cell Cycle Arrest and Apoptosis in MDA-MB-231 Breast Cancer Cells” (Pharmaceuticals, 2025).

Legend:
SK-MEL-5 = settings: SK-MEL-5, Melanoma
SW-620 = settings: SW-620, Colon
OVCAR-8 = settings: OVCAR-8, Ovarian
SK-MEL-28 = settings: SK-MEL-28, Melanoma
MALME-3M = settings: Melanoma
COLO 205 = settings: COLO 205, Colon
K-562 = settings: K-562, Leukemia
786-0 = settings: 786-0, Renal
SF-295 = settings: SF-295, CNS
U251 = settings: U251, CNS
PC-3 = settings: PC-3, Prostate
SNB-19 = assay type: cell-based; settings: SNB-19, CNS
RPMI-8226 = settings: RPMI-8226, Leukemia
SNB-75 = settings: SNB-75, CNS
MCF7 = settings: MCF7, Breast
KM12 = settings: KM12, Colon
HCT-116 = assay type: cell-based; settings: HCT-116, Colon
TK-10 = assay type: cell-based; settings: TK-10, Renal
UO-31 = settings: UO-31, Renal
[1] = DPPH radical scavenging assay; settings: 25 µM test compound, 0.1 mM DPPH, acetonitrile, 30 min
Method: A stable free radical DPPH (2,2-Diphenyl-1-picrylhydrazyl) assay was employed to test the antioxidant activity of all the synthesized compounds. Concisely, 25 µM of the test compounds were dissolved in acetonitrile and combined with 0.1 mM of DPPH (in acetonitrile) in a 1:2 ratio (80 µL and 160 µL). Then, the mixture was left undisturbed in the dark for 30 min at room temperature. After 30 min, the absorbance of the solutions was instantly measured at 517 nm using a Varioskan Multiplate Reader (Thermo Fisher Scientific, Mumbai, India). Ascorbic acid (in acetonitrile) was used as the positive control, and andrographolide and isoandrogapholide (in acetonitrile) were used as the standards. The following equation was used to determine the DPPH radical scavenging activity:% Radical scavenging activity = (Ac − As)/Ac × 100 where Ac = the absorbance of the blank (DPPH solution), and As = the absorbance of the test samples

SF-539 = settings: SF-539, CNS
SF-268 = settings: SF-268, CNS
M14 = assay type: cell-based; settings: M14, Melanoma
MOLT-4 = settings: MOLT-4, Leukemia
[2] = read-out: 50% lethal concentration (LC50), Renal
[3] = read-out: 50% lethal concentration (LC50)

Compound `C=C1CCC2C3(C)COC(c4cn(-c5ccccc5)nc4-c4ccc(Cl)cc4)OC3CCC2(C)C1CC=C1C(=O)OCC1O` (stereo not shown) [1g] has a GI50 (ACHN; Renal) of 1890 nM, a Total growth inhibition (TGI) (ACHN; Renal) of 3.95 µM and a CC50 (ACHN; [2]) of 8.23 µM. The GI50 (SK-MEL-5) was 1700 nM, the Total growth inhibition (TGI) (SK-MEL-5) was 3.11 µM and the CC50 (SK-MEL-5; [3]) was 5.69 µM. The GI50 (T-47D; Breast) was 1310 nM, the Total growth inhibition (TGI) (T-47D; Breast) was 3.6 µM and the CC50 (T-47D; read-out: 50% lethal concentration (LC50), Breast) was over 100 µM. For the same compound, the GI50 (HL-60(TB); Leukemia) was 2670 nM, the Total growth inhibition (TGI) (HL-60(TB); Leukemia) was over 100 µM and the CC50 (HL-60(TB); read-out: 50% lethal concentration (LC50), Leukemia) was over 100 µM. For the same compound, the Total growth inhibition (TGI) (SW-620) was over 100 µM, the CC50 (SW-620; [3]) was over 100 µM and the GI50 (OVCAR-8) was 1950 nM. It also gave a Total growth inhibition (TGI) (OVCAR-8) of 4.97 µM, a CC50 (OVCAR-8; [3]) of over 100 µM and a GI50 (SK-MEL-28) of 1780 nM. The Total growth inhibition (TGI) (SK-MEL-28) was 3.36 µM, the CC50 (SK-MEL-28; [3]) was 6.35 µM and the GI50 (MALME-3M) was 1820 nM. The Total growth inhibition (TGI) (MALME-3M) was 3.41 µM, the GI50 (COLO 205) was 2300 nM and the Total growth inhibition (TGI) (COLO 205) was 5.58 µM. It also gave a GI50 (K-562) of 3.67 µM, a Total growth inhibition (TGI) (K-562) of over 100 µM and a CC50 (K-562; [3]) of over 100 µM. For the same compound, the GI50 (786-0) was 1990 nM, the Total growth inhibition (TGI) (786-0) was 4.17 µM and the CC50 (786-0; [3]) was 8.7 µM. For the same compound, the GI50 (SF-295) was 1500 nM, the Total growth inhibition (TGI) (SF-295) was 2.88 µM and the CC50 (SF-295; [3]) was 5.51 µM. It also gave a GI50 (U251) of 2390 nM, a Total growth inhibition (TGI) (U251) of 3.19 µM and a GI50 (PC-3) of 2070 nM. The Total growth inhibition (TGI) (PC-3) was over 100 µM, the CC50 (PC-3; [3]) was over 100 µM and the GI50 (SNB-19) was 1400 nM. The GI50 (RPMI-8226) was 2460 nM, the Total growth inhibition (TGI) (RPMI-8226) was over 100 µM and the CC50 (RPMI-8226; [3]) was over 100 µM. It also gave a GI50 (SNB-75) of 1690 nM, a Total growth inhibition (TGI) (SNB-75) of 2.87 µM and a CC50 (SNB-75; [3]) of 5.87 µM. It also gave a GI50 (MCF7) of 1510 nM, a Total growth inhibition (TGI) (MCF7) of over 100 µM and a CC50 (MCF7; [3]) of 42.8 µM. For the same compound, the GI50 (KM12) was 2290 nM, the Total growth inhibition (TGI) (KM12) was 4.92 µM and the GI50 (HCT-116) was 1200 nM. The Total growth inhibition (TGI) (HCT-116) was 2.53 µM, the CC50 (HCT-116; [3]) was 5.37 µM and the GI50 (TK-10) was 1330 nM. The Total growth inhibition (TGI) (TK-10) was 2.74 µM, the GI50 (UO-31) was 1990 nM and the Total growth inhibition (TGI) (UO-31) was 4.17 µM. The CC50 (UO-31; [3]) was 5.6 µM, the GI50 (MDA-MB-231; MDA-MB-231, Breast) was 1680 nM and the Total growth inhibition (TGI) (MDA-MB-231; MDA-MB-231/ATCC, Breast) was 4.6 µM. For the same compound, the CC50 (MDA-MB-231; read-out: 50% lethal concentration (LC50), MDA-MB-231/ATCC, Breast) was 6.25 µM, the “% DPPH radical scavenging activity” value [1] was 57.45% and the GI50 (SF-539) was 1720 nM. The Total growth inhibition (TGI) (SF-539) was 3.12 µM, the CC50 (SF-539; [3]) was 5.66 µM and the GI50 (SF-268) was 2390 nM. For the same compound, the Total growth inhibition (TGI) (SF-268) was 6.32 µM, the CC50 (SF-268; [3]) was over 100 µM and the GI50 (M14) was 1840 nM. The Total growth inhibition (TGI) (M14) was 3.69 µM, the GI50 (SN12C; Renal) was 1670 nM and the Total growth inhibition (TGI) (SN12C; Renal) was 3.57 µM. It also gave a CC50 (SN12C; [2]) of 7.61 µM, a GI50 (MOLT-4) of 880 nM and a Total growth inhibition (TGI) (MOLT-4) of over 100 µM. The CC50 (MOLT-4; [3]) was over 100 µM.
